Measured values: patent publication US20110301209A1, “METHODS AND COMPOSITIONS FOR THE TREATMENT OF CANCER, TUMORS, AND TUMOR-RELATED DISORDERS” (TRAGARA PHARMACEUTICALS, INC., priority 2007, published 2011)

Key:
[1] = tested on: H460 NSCLC; experiment: H460 NSCLC xenograft, tumor growth delay; assay type: in vivo, female athymic nude mice
Source text: (§1) The models evaluated included MV522, A549 and H460 NSCLC. […] The experiments used a tumor growth delay (TGD) endpoint based on median time to endpoint, i.e., tumor volume of 1000-2000 mm^3, and treatments were compared to untreated controls using the Logrank test for statistical significance.

[2] = tested on: MV522 NSCLC; experiment: in vivo; settings: MV522
Source text: as §1

[3] = in vivo; settings: female, athymic nude, mouse, in vivo, po
Source text: as §1

[4] = Oral pharmacokinetics, all species examined; assay type: in vivo; settings: orally administered; mice, rats, dogs, and monkeys
Description: Peak plasma concentrations were achieved between 1 and 3 hours after a dose of 5 mg/kg. […] Oral availability was greatest in rodent, and was reduced in dogs and monkeys (59 and 34% respectively).

[5] = tested on: A549 NSCLC; experiment: A549 NSCLC xenograft, tumor growth delay; assay type: in vivo, female athymic nude mice
Source text: as §1

[6] = cited from earlier work
[7] = patients taking erlotinib; cited from earlier work

Structure (SMILES): CCOc1ccc(-c2cc(C)cn2-c2ccc(S(N)(=O)=O)cc2)cc1
- Tumor growth delay (TGD) ([1]; COX-2 inhibitor monotherapy): 4.0 days
- Tumor growth delay (TGD), percent ([1]; COX-2 inhibitor monotherapy): 30%
- Tumor growth delay (TGD) ([2]; 10 mg/kg oral daily): 19.1 days
- Tumor growth delay (TGD), percent ([2]; 10 mg/kg oral daily): 57%
- Tumor growth delay (TGD) ([2]; 30 mg/kg (MTD) oral daily): 32.1 days
- Tumor growth delay (TGD), percent ([2]; 30 mg/kg (MTD) oral daily): 96%
- MTD [3]: 30 mg/kg
- Absorption after oral administration [4]: rapidly absorbed
- Tumor growth delay (TGD) ([5]; at its MTD, oral daily): 24.3 days
- Tumor growth delay (TGD), percent ([5]; at its MTD, oral daily): 62%

Structure (SMILES): CC(=O)O[C@@]12CO[C@@H]1C[C@H](O)[C@@]1(C)C(=O)[C@H](O)C3=C(C)[C@@H](OC(=O)[C@H](O)[C@@H](NC(=O)OC(C)(C)C)c4ccccc4)C[C@@](O)([C@@H](OC(=O)c4ccccc4)[C@H]21)C3(C)C [Docetaxel]
- Tumor growth delay (TGD) ([1]; 25 mg/kg iv weekly x3): 10.8 days
- Tumor growth delay (TGD), percent ([1]; 25 mg/kg iv weekly x3): 80%
- Solubility in water [6]: practically insoluble

Structure (SMILES): Cc1ccc(-c2cc(C(F)(F)F)nn2-c2ccc(S(N)(=O)=O)cc2)cc1 [celecoxib, reference compound]
- Tumor growth delay (TGD) ([1]; COX-2 inhibitor monotherapy): 3.0 days
- Tumor growth delay (TGD), percent ([1]; COX-2 inhibitor monotherapy): 22%
- Tumor growth delay (TGD) ([5]; 100 mg/kg): 15.4 days
- Tumor growth delay (TGD), percent ([5]; 100 mg/kg): 39%

Structure (SMILES): C#Cc1cccc(Nc2ncnc3cc(OCCOC)c(OCCOC)cc23)c1 [erlotinib, N-(3-ethynylphenyl)-6,7-bis(2-methoxyethoxy)quinazolin-4-amine]
- Patients with common side effects (rash, diarrhea, poor appetite, fatigue, shortness of breath, cough, nausea and vomiting) [7]: greater than 30 % of patients
